# Measured values published in patent US12187700B2, “Polymorphs and cocrystals of a cardiac troponin activator” (Amgen Inc., priority 2019, dated 2025).
# Structures can show the parent of a compound that is named as a salt.
# Experiments:
# Format in all cases: physicochemical
# [1] = Static storage stability of cocrystals and amorphous form by XRPD
# [2] = Physical form stability (dehydration of the monohydrate); conditions: under vacuum at ambient temperature, at temperatures greater than 25° C. or at low humidity
# [3] = Solid stability of drug substance (chemical by UPLC; physical by XRPD, DSC, TGA); conditions: stored at 25° C./60% RH, 40° C./75% RH, 40° C./ambient or 60° C./ambient conditions
# Experimental: Solid Stability Drug substance was stored at 25 C/60% RH, 40 C/75% RH, 40 C/ambient or 60 C/ambient conditions. Chemical stability was determined at each timepoint by dissolving the drug substance in 50% acetonitrile water for UPLC analysis. Physical stability was determined by analyzing the solid by XRPD, DSC and TGA.
# [4] = Solubility in water (excess solid dispersed at least 24 hours at room temperature, UPLC-UV)
# Experimental: Water: An excess of solid was added to water to produce a suspension and dispersed for at least 24 hours at room temperature. Suspensions were filtered. Filtrate was analyzed by UPLC-UV and compared against a standard curve to determine the solution concentration of the crystal form. Solids were analyzed by XRPD to determine the crystal form.
# [5] = Moisture sorption (dynamic vapor sorption, hygroscopicity 0 to 95% RH); conditions: for hygroscopicity: DVS, 0 to 95% RH
# Experimental: Moisture Sorption Moisture sorption data was collected using a dynamic vapor sorption (DVS) analyzer. A sample size of approximately 5-10 mg was used in a quartz pan. Hygroscopicity was evaluated from 0 to 95% RH in increments of 5 or 10% RH. Data for adsorption and desorption cycles were collected. Equilibrium criteria were set at 0.002% weight change in 5 minute with a maximum equilibration time of 120 minutes.
smiles,measurement,setting,value
CS(=O)(=O)c1cncc(C(=O)N2[C@@H](C(=O)N[C@@H](c3cc(F)c(C(F)(F)F)cc3F)C3CC3)C[C@H]3C[C@H]32)c1 [Amorphous Form],time to crystallization upon static storage,[1]; static storage at 80° C./0% RH or 40° C./75% RH,≤ 1 week
CS(=O)(=O)c1cncc(C(=O)N2[C@@H](C(=O)N[C@@H](c3cc(F)c(C(F)(F)F)cc3F)C3CC3)C[C@H]3C[C@H]32)c1 [Form III],stability of the monohydrate (dehydration),[2],dehydrates
CS(=O)(=O)c1cncc(C(=O)N2[C@@H](C(=O)N[C@@H](c3cc(F)c(C(F)(F)F)cc3F)C3CC3)C[C@H]3C[C@H]32)c1 [Form IV],time physically and chemically stable on storage,[3],13 weeks
same,solubility in water,[4],10 µg/mL
same,hygroscopicity,[5],non-hygroscopic
CS(=O)(=O)c1cncc(C(=O)N2[C@@H](C(=O)N[C@@H](c3cc(F)c(C(F)(F)F)cc3F)C3CC3)C[C@H]3C[C@H]32)c1 [Form I],time physically and chemically stable on storage,[3],14 weeks
same,solubility,[4]; thermodynamic from solid,13 µg/mL
same,hygroscopicity,[5],non-hygroscopic
CS(=O)(=O)c1cncc(C(=O)N2[C@@H](C(=O)N[C@@H](c3cc(F)c(C(F)(F)F)cc3F)C3CC3)C[C@H]3C[C@H]32)c1 [Glycerol cocrystal],storage stability by XRPD,[1]; 40° C./75% RH storage 7 d,Stable
CS(=O)(=O)c1cncc(C(=O)N2[C@@H](C(=O)N[C@@H](c3cc(F)c(C(F)(F)F)cc3F)C3CC3)C[C@H]3C[C@H]32)c1 [Hydrochloride Salt Form],hygroscopicity,[5],hygroscopic
same,salt stability upon exposure to water,[5]; exposure to water during moisture sorption experiments or slurry in water,disproportionates to Free Form
CS(=O)(=O)c1cncc(C(=O)N2[C@@H](C(=O)N[C@@H](c3cc(F)c(C(F)(F)F)cc3F)C3CC3)C[C@H]3C[C@H]32)c1 [Urea cocrystal],storage stability by XRPD,[1]; 25° C./97% RH storage 7 d,Stable
